# Source: ChEMBL document CHEMBL5214943, “Guanidino quinazolines and pyrimidines promote readthrough of premature termination codons in cells with native nonsense mutations” (Bioorg Med Chem Lett, 2022)
# Activity calls are given as the source filed them. No cut-off for these calls is given here.
# Target: Dystrophin (Mus musculus) (UniProt P11531)
# Assay: Induction of read through activity at dystrophin in mouse H2K mdx cells assessed as increase in production of full length dystrophin protein at 0.6 to 20 uM by western blot assay
# Type: cell-based
# Settings: filed as activator, dose 0.6-20 µM
# Sequence of Dystrophin (Mus musculus) (P11531 whole entry): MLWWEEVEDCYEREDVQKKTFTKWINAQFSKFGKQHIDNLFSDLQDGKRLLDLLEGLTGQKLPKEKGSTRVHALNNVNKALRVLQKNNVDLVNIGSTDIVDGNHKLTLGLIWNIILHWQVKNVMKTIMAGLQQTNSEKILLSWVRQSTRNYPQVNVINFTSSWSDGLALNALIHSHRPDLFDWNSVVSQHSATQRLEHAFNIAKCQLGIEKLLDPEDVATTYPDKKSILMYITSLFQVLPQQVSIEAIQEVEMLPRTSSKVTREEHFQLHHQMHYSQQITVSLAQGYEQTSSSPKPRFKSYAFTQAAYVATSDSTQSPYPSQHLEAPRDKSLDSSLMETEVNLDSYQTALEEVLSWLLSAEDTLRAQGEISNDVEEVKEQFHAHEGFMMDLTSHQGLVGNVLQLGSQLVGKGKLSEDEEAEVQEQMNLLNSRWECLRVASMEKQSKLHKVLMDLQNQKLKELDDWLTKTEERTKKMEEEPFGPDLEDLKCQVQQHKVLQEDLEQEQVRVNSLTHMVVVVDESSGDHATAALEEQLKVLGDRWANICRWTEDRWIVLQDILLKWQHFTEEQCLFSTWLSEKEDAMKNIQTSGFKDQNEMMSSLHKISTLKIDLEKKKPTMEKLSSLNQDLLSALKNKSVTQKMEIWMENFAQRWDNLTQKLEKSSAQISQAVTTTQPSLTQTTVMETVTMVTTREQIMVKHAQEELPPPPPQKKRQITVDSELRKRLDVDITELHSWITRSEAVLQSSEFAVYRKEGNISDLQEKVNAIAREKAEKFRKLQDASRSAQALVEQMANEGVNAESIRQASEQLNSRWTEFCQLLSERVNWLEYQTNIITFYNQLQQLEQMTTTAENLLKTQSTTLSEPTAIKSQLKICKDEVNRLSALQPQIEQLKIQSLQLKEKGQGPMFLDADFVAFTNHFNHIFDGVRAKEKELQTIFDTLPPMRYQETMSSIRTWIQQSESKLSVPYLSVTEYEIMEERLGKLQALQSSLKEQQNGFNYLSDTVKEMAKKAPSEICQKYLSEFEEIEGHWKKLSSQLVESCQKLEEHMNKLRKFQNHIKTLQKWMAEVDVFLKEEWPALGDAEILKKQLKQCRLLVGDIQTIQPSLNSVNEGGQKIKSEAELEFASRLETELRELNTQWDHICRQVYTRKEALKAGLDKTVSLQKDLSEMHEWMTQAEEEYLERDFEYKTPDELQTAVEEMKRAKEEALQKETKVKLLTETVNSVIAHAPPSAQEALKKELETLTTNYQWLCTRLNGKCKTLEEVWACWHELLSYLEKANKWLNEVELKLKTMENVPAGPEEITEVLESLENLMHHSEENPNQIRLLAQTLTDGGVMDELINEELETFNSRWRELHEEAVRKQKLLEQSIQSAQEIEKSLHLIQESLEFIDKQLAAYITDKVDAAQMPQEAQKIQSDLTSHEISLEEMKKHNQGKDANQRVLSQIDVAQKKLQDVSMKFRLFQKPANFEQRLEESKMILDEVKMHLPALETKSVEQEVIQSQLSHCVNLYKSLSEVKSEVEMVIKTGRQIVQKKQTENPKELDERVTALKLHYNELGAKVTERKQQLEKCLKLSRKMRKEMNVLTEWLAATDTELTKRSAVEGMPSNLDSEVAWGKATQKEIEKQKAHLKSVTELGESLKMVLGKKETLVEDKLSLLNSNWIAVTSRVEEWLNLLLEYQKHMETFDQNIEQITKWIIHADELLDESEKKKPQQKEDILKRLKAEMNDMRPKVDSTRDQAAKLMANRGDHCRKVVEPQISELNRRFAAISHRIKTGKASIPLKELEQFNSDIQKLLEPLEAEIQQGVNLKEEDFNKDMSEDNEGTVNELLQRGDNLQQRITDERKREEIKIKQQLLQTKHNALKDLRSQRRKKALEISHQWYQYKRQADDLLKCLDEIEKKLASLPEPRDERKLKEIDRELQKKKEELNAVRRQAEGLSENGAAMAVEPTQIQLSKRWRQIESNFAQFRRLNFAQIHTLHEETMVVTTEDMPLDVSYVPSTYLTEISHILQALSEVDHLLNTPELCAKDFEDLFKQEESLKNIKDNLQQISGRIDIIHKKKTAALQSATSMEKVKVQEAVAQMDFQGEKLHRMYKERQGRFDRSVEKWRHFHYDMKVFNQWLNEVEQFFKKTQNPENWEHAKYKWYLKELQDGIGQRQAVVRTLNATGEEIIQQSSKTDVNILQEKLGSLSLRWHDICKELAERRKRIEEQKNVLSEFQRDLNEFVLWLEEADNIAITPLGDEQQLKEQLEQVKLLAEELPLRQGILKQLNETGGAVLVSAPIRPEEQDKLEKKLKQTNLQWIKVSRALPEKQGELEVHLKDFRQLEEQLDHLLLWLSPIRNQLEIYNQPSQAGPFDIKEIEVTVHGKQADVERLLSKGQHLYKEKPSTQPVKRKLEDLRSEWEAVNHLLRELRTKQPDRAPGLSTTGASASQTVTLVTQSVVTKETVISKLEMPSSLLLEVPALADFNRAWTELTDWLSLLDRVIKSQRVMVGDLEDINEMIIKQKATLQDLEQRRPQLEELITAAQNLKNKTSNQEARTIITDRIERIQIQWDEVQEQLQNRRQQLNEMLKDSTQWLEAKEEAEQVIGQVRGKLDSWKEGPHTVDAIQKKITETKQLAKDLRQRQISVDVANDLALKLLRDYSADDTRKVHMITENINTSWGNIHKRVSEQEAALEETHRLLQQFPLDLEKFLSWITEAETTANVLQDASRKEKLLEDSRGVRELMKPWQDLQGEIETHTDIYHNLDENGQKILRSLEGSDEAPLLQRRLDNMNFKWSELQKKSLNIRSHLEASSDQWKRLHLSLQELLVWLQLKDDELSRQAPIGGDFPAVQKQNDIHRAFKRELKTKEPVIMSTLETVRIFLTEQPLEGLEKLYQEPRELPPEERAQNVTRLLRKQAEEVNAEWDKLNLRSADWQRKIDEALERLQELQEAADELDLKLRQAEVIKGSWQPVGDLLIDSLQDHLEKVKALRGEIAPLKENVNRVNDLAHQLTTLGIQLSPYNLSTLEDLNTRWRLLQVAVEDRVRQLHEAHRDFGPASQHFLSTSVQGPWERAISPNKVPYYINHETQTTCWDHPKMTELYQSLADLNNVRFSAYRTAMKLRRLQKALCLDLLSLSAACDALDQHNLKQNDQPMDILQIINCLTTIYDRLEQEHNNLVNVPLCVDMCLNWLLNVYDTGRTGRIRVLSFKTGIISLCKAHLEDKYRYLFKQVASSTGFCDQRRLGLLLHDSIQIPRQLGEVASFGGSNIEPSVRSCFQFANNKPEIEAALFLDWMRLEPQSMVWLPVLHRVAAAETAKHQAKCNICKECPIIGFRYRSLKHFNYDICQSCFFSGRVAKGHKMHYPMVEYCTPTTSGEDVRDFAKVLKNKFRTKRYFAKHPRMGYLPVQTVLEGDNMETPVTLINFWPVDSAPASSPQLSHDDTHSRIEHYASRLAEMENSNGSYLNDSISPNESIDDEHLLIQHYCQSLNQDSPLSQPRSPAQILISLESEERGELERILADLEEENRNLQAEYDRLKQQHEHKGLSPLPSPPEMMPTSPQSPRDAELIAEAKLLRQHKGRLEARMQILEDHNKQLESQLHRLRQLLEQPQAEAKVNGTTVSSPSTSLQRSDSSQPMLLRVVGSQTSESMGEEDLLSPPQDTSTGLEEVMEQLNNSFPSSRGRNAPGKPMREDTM
row,Compound,Activity
1,Cc1nc(NC(=N)NCCCN2CCCC2)nc(-c2ccoc2)c1C,Active

# Target: Dystrophin (Mus musculus) (UniProt P11531)
# Assay: Induction of read through activity at dystrophin in mouse H2K mdx cells assessed as increase in production of full length dystrophin protein at <2 uM by MSD assay
# Type: cell-based
# Settings: filed as activator
row,Compound,Activity
1,N=C(NCCCN1CCCCC1)Nc1nc2c(c(-c3ccoc3)n1)CCC2,Active

# Target: Dystrophin (Mus musculus) (UniProt P11531)
# Assay: Induction of read through activity at dystrophin in mouse H2K mdx cells assessed as increase in production of full length dystrophin protein at 0.07 to 2 uM by western blot assay
# Type: cell-based
# Settings: filed as activator, dose 0.07-2 µM
row,Compound,Activity
1,N=C(NCCCN1CCCCC1)Nc1nc2c(c(-c3ccoc3)n1)CCC2,Active

# Target: Dystrophin (Mus musculus) (UniProt P11531)
# Assay: Induction of read through activity at dystrophin in mouse H2K mdx cells assessed as increase in production of full length dystrophin protein by measuring fold change at 0.01 to 100 uM by MSD assay
# Type: cell-based
# Settings: filed as activator, dose 0.01-100 µM
row,Compound,fold change (FC)
1,N=C(NCCCN1CCCCC1)Nc1nc2c(c(-c3ccoc3)n1)CCC2,3

# System: Premature termination codon
# Assay: Induction of read through activity at T-p53 R213X mutant premature termination codon in human HDQ-P1 cells assessed as increase in production of full length p53 protein by MSD assay
# Type: cell-based
# Settings: not given
row,Compound,EC2
1,Cc1nc(NC(=N)NCCCN2CCCC2)nc(C)c1-c1ccoc1,> 30 µM
2,C/N=C(/NCCCN(C)C)Nc1nc(C)c2ccccc2n1,> 30 µM
3,Cc1nc(NC(=N)NCC(=O)O)nc2cc(F)ccc12,> 100 µM
4,Cc1ccc2cnc(NC(=N)N)nc2c1,> 100 µM
5,Cc1nc(NC(=N)NCC(F)(F)CN(C)C)nc2ccccc12,> 30 µM
6,Cc1nc(NC(=N)N)cc2ccccc12,> 100 µM
7,Cc1nc(NC(=N)Nc2cccc(N(C)C)c2)nc2cc(Cl)ccc12,> 30 µM
8,Cc1nc(NC(=N)N(C)CCCN(C)C)nc2ccccc12,> 30 µM
9,Cc1nc(N)nc2ccccc12,> 100 µM
10,Cc1nc(NC(N)=O)nc2cc(Cl)ccc12,> 100 µM
11,Cc1ccc2c(C)cc(NC(=N)N)nc2c1,> 100 µM
12,Cc1nc(NS(N)(=O)=O)nc2cc(Cl)ccc12,> 100 µM
13,Cc1nc(NC(=N)NCCCN(C)CC(F)(F)F)nc2ccccc12,> 30 µM
14,Cc1nc(NC(=N)NCCCN(C)CC(=O)O)nc2ccccc12,> 30 µM
15,Cc1ccnc(NC(=N)NCCCN(C)C)n1,> 30 µM

# Same assay, conditions: filed as activator
row,Compound,EC2
1,CN(C)CCCNC(=N)Nc1nc(-c2ccccc2)c2ccccc2n1,7.5 µM
2,Cc1nc(NC(=N)NCCCN(C)C)nc2cc(F)ccc12,1.1 µM
3,Cc1cccc2nc(NC(=N)N[C@@H]3CCN(C)C3)nc(C)c12,0.34 µM
4,CNC(=N)Nc1nc(C)c2ccc(C)cc2n1,7.7 µM
5,Cc1cccc2nc(NC(=N)N[C@H]3CCNC3)nc(C)c12,2.2 µM
6,Cc1cccc2nc(NC(=N)NC3CCNCC3)nc(C)c12,1.1 µM
7,N=C(NCCCN1CCC1)Nc1nc2c(c(-c3ccoc3)n1)CCC2,0.44 µM
8,Cc1nc(NC(=N)NCCCN(C)C)nc(-c2ccoc2)c1C,1.3 µM
9,Cc1cccc2nc(NC(=N)NCCCN3CCCC3)nc(C)c12,0.84 µM
10,Cc1nc(NC(=N)NCCCN(C)C)nc2ccccc12,1.7 µM
11,Cc1nc(NC(=N)NCCCN2CCCC2)nc2cc(F)ccc12,1.5 µM
12,CCc1cc(C)nc(NC(=N)NCCCN(C)C)n1,17 µM
13,Cc1nc(NC(=N)NCCN(C)C)nc2cc(F)ccc12,3.9 µM
14,Cc1cc(-c2ccccc2)nc(NC(=N)NCCCN(C)C)n1,7.3 µM
15,Cc1nc(NC(=N)NCCCCCCN(C)C)nc2cc(F)ccc12,17 µM
16,Cc1nc(NC(=N)NCCCCN(C)C)nc2cc(F)ccc12,2.2 µM
17,Cc1nc(NC(=N)NCCCN2CCCC2)nc(-c2ccoc2)c1F,1.6 µM
18,Cc1nc(NC(=N)NCCCN(C)C)nc2cc(Cl)ccc12,0.85 µM
19,CN(C)CCCNC(=N)Nc1nc(-c2ccoc2)c2sccc2n1,0.7 µM
20,Cc1nc(NC(=N)NCCCN(C)[C@@H](C)c2ccccc2)nc2ccccc12,2.2 µM
21,Cc1nc(NC(=N)NCCCN2CCCC2)nc(-c2ccoc2)c1C,1.2 µM
22,Cc1nc(NC(=N)NCCCN2CCCC2)nc2c(C)cccc12,0.55 µM
23,Cc1nc(NC(=N)NCCCN2CCC3(CCC3)C2)nc2cc(F)ccc12,2.3 µM
24,CN(C)CCCNC(=N)Nc1nc2c(c(-c3ccoc3)n1)CCC2,0.44 µM
25,CCN(CC)CCCNC(=N)Nc1nc(C)c2ccc(F)cc2n1,2.2 µM

row,Compound,EC2
1,Cc1nc(NC(=N)N[C@H](C)CCN(C)C)nc2ccccc12,2.5 µM
2,Cc1cccc2nc(NC(=N)NC3CCN(C)CC3)nc(C)c12,0.51 µM
3,Cc1nc(N=C(N)N)nc2cc(Cl)ccc12,6.3 µM
4,Cc1nc(NC(=N)NCCCN(C)C)nc2cc(F)cc(F)c12,2.9 µM
5,CN1CCC(NC(=N)Nc2nc3c(c(-c4ccoc4)n2)CCC3)CC1,0.22 µM
6,CNCCCNC(=N)Nc1nc(C)c2ccc(F)cc2n1,2.5 µM
7,Cc1nc(NC(=N)NCCCN2CCCC2)nc(-c2cccs2)c1C,0.42 µM
8,Cc1nc(NC(=N)NCCCN2CCCC2)nc(-c2ccoc2)c1C(F)(F)F,15 µM
9,Cc1nc(NC(=N)NCCCc2ccccc2)nc2ccccc12,47 µM
10,Cc1nc(NC(=N)NCCCN2CCCC2)nc(-c2ccsc2)c1C,1.4 µM
11,Cc1nc(N=C(N)N)nc2cc(F)ccc12,13 µM
12,CN(C)CCCNC(=N)Nc1nc(-c2ccoc2)c2occc2n1,2 µM
13,Cc1nc(NC(=N)NCCCN2CCCC2)nc2ccccc12,2.1 µM
14,Cc1nc(NC(=N)NCCCN(C)C)nc2cccc(F)c12,0.92 µM
15,CN(C)CCCNC(=N)Nc1ncc2ccccc2n1,7.5 µM
16,CN(C)CCCNC(=N)Nc1nc2c(c(-c3ccoc3)n1)COC2,2.4 µM
17,Cc1nc(NC(=N)NCCCN(C)CC2CCC2)nc2cc(F)ccc12,1.1 µM
18,Cc1cccc2nc(NC(=N)N[C@H]3CCN(C)C3)nc(C)c12,1 µM
19,Cc1nc(NC(=N)NCC2(CN(C)C)CCCC2)nc2cc(F)ccc12,16 µM
20,Cc1ccc2c(C)nc(NC(=N)NCCOCCO)nc2c1,48 µM
21,N=C(NCCCN1CCCCC1)Nc1nc2c(c(-c3ccoc3)n1)CCC2,0.4 µM
22,N=C(NCCCN1CCCC1)Nc1nc2c(c(-c3ccoc3)n1)CCC2,0.44 µM
23,Cc1ccc2c(C)nc(NC(=N)NCCCN3CCCC3)nc2c1,1 µM
24,Cc1nc(NC(=N)NCCCN2CCOCC2)nc2cc(F)ccc12,4.7 µM
25,CN(C)CCCNC(=N)Nc1nc2c(c(-c3ccoc3)n1)CCCCCC2,2.7 µM

row,Compound,EC2
1,Cc1nc(NC(=N)NCCO)nc2cc(F)ccc12,26 µM
2,Cc1nc(NC(=N)NCCCN2CCN3CCCCC3C2)nc2cc(F)ccc12 (stereo not given),3.5 µM
3,Cc1nc(NC(=N)NCCCN2CCCC2)nc(-c2ccco2)c1C,0.56 µM
4,Cc1ccc2nc(NC(=N)NCCCN3CCCC3)nc(C)c2c1,2.3 µM
5,COCCNC(=N)Nc1nc(C)c2ccc(C)cc2n1,12 µM
6,Cc1nc(NC(=N)NCCCN2CCCC2)nc(-c2ccoc2)c1Cl,0.77 µM
7,Cc1nc(NC(=N)NCCCN2CCCCC2)nc2cc(F)ccc12,0.68 µM
8,CCNC(=N)Nc1nc(C)c2ccc(Cl)cc2n1,21 µM
9,Cc1nc(NC(=N)NC2CCCC(N(C)C)C2)nc2cc(F)ccc12 (stereo not given),5.5 µM
10,CN(C)CCCNC(=N)Nc1nc(-c2ccoc2)c2ccsc2n1,1.3 µM
11,Cc1nc(NC(=N)NCCCCCN(C)C)nc2cc(F)ccc12,6.6 µM
12,Cc1cc(-c2ccoc2)nc(NC(=N)NCCCN(C)C)n1,3 µM
13,Cc1ccc2c(C)nc(NC(=N)N)nc2c1,10 µM
14,CN(C)CCCNC(=N)Nc1nc2c(c(-c3ccoc3)n1)CCCCC2,3.5 µM
15,Cc1nc(NC(=N)NCCCN(C)[C@H](C)c2ccccc2)nc2ccccc12,1.8 µM
16,CN(C)CCCNC(=N)Nc1nc2c(c(-c3ccoc3)n1)CCCC2,1.1 µM
17,COc1cccc(NC(=N)Nc2nc(C)c3ccccc3n2)c1,21 µM
18,CN1CCC(NC(=N)Nc2nc3c(c(-c4ccco4)n2)CCC3)CC1,0.12 µM
19,CN[C@@H]1[C@@H](O)[C@@H](O[C@@H]2[C@@H](O)[C@H](O[C@H]3O[C@H]([C@H](C)O)[C@@H](O)[C@H](O)[C@H]3N)[C@@H](N)C[C@H]2N)OC[C@]1(C)O,8.5 µM
20,Cc1cccc2nc(NC(=N)N[C@@H]3CCNC3)nc(C)c12,1.3 µM
21,Cc1nc(NC(=N)NCCCN)nc2cc(F)ccc12,9.8 µM
22,Cc1ccc2c(C)nc(NC(=N)NCCCN(C)C)nc2c1,1.1 µM
23,Cc1nc(NC(=N)NCCCN2CCCC2)nc(-c2ccoc2)c1Br,0.96 µM
24,Cc1nc(NC(=N)N)nc2ccccc12,20 µM
25,CCc1c(C)nc(NC(=N)NCCCN2CCCC2)nc1-c1ccoc1,3.2 µM

# Target: Dystrophin (Mus musculus) (UniProt P11531)
# Assay: Induction of read through activity at dystrophin in mouse H2K mdx cells assessed as increase in production of full length dystrophin protein at 0.01 to 100 uM by MSD assay
# Type: cell-based
# Settings: filed as activator, dose 0.01-100 µM
row,Compound,Activity
1,Cc1nc(NC(=N)NCCCN2CCCC2)nc(-c2ccoc2)c1C,Active
